Measurements: ChEMBL document CHEMBL4507288 (2021)

Tests used:
[1] = system: Tyrosine-protein kinase ABL1 (Homo sapiens), P00519 [F317I]; conditions: Compound concentration 1000.0 nM
[2] = biological target: Aurora kinase C (Homo sapiens) (UniProt Q9UQB9); conditions: Compound concentration 1000.0 nM
Rattus norvegicus = organism: Rattus norvegicus; conditions: Compound concentration 10.0 uM
[3] = biological target: Cyclin-dependent kinase-like 2 (Homo sapiens) (UniProt Q92772); conditions: Compound concentration 1000.0 nM
[4] = biological target: Casein kinase I isoform gamma-3 (Homo sapiens) (UniProt Q9Y6M4); conditions: Compound concentration 1000.0 nM
[5] = biological target: Serine/threonine-protein kinase 10 (Homo sapiens) (UniProt O94804); conditions: Compound concentration 1000.0 nM
[6] = biological target: Tyrosine-protein kinase Lck (Homo sapiens) (UniProt P06239); conditions: Compound concentration 1000.0 nM
[7] = biological target: Calcium/calmodulin-dependent protein kinase type 1G (Homo sapiens) (UniProt Q96NX5); conditions: Compound concentration 1000.0 nM
[8] = biological target: Serine/threonine-protein kinase 17B (Homo sapiens) (UniProt O94768); conditions: Compound concentration 1000.0 nM
[9] = biological target: Serine/threonine-protein kinase WNK4 (Homo sapiens) (UniProt Q96J92); conditions: Compound concentration 1000.0 nM
[10] = biological target: RAC-alpha serine/threonine-protein kinase (Homo sapiens) (UniProt P31749); conditions: Compound concentration 1000.0 nM
[11] = biological target: Mitogen-activated protein kinase 8 (Homo sapiens) (UniProt P45983); conditions: Compound concentration 1000.0 nM
[12] = biological target: Mitogen-activated protein kinase kinase kinase 3 (Homo sapiens) (UniProt Q99759); conditions: Compound concentration 1000.0 nM
[13] = biological target: Interferon-induced, double-stranded RNA-activated protein kinase (Homo sapiens) (UniProt P19525); conditions: Compound concentration 1000.0 nM
[14] = biological target: Myosin light chain kinase, smooth muscle (Homo sapiens) (UniProt Q15746); conditions: Compound concentration 1000.0 nM
[15] = biological target: Cyclin-dependent kinase 15 (Homo sapiens) (UniProt Q96Q40); conditions: Compound concentration 1000.0 nM
[16] = biological target: Cyclin-dependent kinase 2 (Homo sapiens) (UniProt P24941); conditions: Compound concentration 1000.0 nM
[17] = biological target: LIM domain kinase 2 (Homo sapiens) (UniProt P53671); conditions: Compound concentration 1000.0 nM
[18] = biological target: Mitogen-activated protein kinase 4 (Homo sapiens) (UniProt P31152); conditions: Compound concentration 1000.0 nM
[19] = biological target: Serine/threonine-protein kinase SBK1 (Homo sapiens) (UniProt Q52WX2); conditions: Compound concentration 1000.0 nM
[20] = biological target: Casein kinase I isoform gamma-2 (Homo sapiens) (UniProt P78368); conditions: Compound concentration 1000.0 nM
[21] = biological target: Macrophage colony-stimulating factor 1 receptor (Homo sapiens) (UniProt P07333); conditions: Compound concentration 1000.0 nM
[22] = biological target: Serine/threonine-protein kinase DCLK3 (Homo sapiens) (UniProt Q9C098); conditions: Compound concentration 1000.0 nM
[23] = system: Epidermal growth factor receptor (Homo sapiens), P00533 [UNDEFINED MUTATION]; conditions: Compound concentration 1000.0 nM
[24] = system: Phosphatidylinositol 4,5-bisphosphate 3-kinase catalytic subunit alpha isoform (Homo sapiens), P42336 [I800L]; conditions: Compound concentration 1000.0 nM
[25] = biological target: Focal adhesion kinase 1 (Homo sapiens) (UniProt Q05397); conditions: Compound concentration 1000.0 nM
[26] = biological target: Bone morphogenetic protein receptor type-2 (Homo sapiens) (UniProt Q13873); conditions: Compound concentration 1000.0 nM
[27] = biological target: Casein kinase I isoform gamma-1 (Homo sapiens) (UniProt Q9HCP0); conditions: Compound concentration 1000.0 nM
[28] = biological target: Dual specificity mitogen-activated protein kinase kinase 2 (Homo sapiens) (UniProt P36507); conditions: Compound concentration 1000.0 nM
[29] = biological target: Proto-oncogene tyrosine-protein kinase Src (Homo sapiens) (UniProt P12931); conditions: Compound concentration 1000.0 nM
[30] = biological target: Rhodopsin kinase GRK7 (Homo sapiens) (UniProt Q8WTQ7); conditions: Compound concentration 1000.0 nM
[31] = system: Epidermal growth factor receptor (Homo sapiens), P00533 [G719C]; conditions: Compound concentration 1000.0 nM
[32] = biological target: MAP kinase-interacting serine/threonine-protein kinase 1 (Homo sapiens) (UniProt Q9BUB5); conditions: Compound concentration 1000.0 nM
[33] = biological target: 5-hydroxytryptamine receptor 1E (Homo sapiens) (UniProt P28566); conditions: Compound concentration 10.0 uM
[34] = biological target: Calcium/calmodulin-dependent protein kinase type 1B (Homo sapiens) (UniProt Q6P2M8); conditions: Compound concentration 1000.0 nM
[35] = biological target: Ribosomal protein S6 kinase alpha-2 (Homo sapiens) (UniProt Q15349); conditions: Compound concentration 1000.0 nM
[36] = biological target: BDNF/NT-3 growth factors receptor (Homo sapiens) (UniProt Q16620); conditions: Compound concentration 1000.0 nM
[37] = biological target: Serine/threonine-protein kinase BRSK1 (Homo sapiens) (UniProt Q8TDC3); conditions: Compound concentration 1000.0 nM
[38] = system: Mast/stem cell growth factor receptor Kit (Homo sapiens), P10721 [V559D,V654A]; conditions: Compound concentration 1000.0 nM
[39] = biological target: Phosphorylase b kinase regulatory subunit alpha, liver isoform (Homo sapiens) (UniProt P46019); conditions: Compound concentration 1000.0 nM
[40] = system: Receptor-type tyrosine-protein kinase FLT3 (Homo sapiens), P36888 [K663Q]; conditions: Compound concentration 1000.0 nM
[41] = biological target: Tyrosine-protein kinase FRK (Homo sapiens) (UniProt P42685); conditions: Compound concentration 1000.0 nM
[42] = biological target: Ribosomal protein S6 kinase alpha-6 (Homo sapiens) (UniProt Q9UK32); conditions: Compound concentration 1000.0 nM
[43] = biological target: Alpha-2C adrenergic receptor (Homo sapiens, UniProt P18825); test: GPCRScan assay: inhibition of Alpha2C; design: radioligand conc. used [nm] 0.5 – 1.0, parental cells stable MDCK
[44] = biological target: 5-hydroxytryptamine receptor 2C (Homo sapiens, UniProt P28335); test: GPCRScan assay: inhibition of 5-HT2C; design: radioligand conc. used [nm] 1.0 – 2.5, parental cells HEK T

Sequence of Rhodopsin kinase GRK7 (Homo sapiens) (Q8WTQ7 whole entry): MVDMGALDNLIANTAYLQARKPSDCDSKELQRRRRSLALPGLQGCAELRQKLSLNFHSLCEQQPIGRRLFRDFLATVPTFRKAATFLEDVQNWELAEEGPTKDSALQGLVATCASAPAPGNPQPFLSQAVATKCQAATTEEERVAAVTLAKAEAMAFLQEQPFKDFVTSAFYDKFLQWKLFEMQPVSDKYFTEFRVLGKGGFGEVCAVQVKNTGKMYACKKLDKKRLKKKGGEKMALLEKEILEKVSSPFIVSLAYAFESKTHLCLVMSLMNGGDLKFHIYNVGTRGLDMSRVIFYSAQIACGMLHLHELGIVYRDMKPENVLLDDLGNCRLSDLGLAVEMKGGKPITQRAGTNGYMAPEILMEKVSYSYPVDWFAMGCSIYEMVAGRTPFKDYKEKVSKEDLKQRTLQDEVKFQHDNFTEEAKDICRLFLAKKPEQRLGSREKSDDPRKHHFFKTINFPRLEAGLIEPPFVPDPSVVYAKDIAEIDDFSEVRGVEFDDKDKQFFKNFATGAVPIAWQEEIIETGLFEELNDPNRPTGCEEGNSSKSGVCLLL
Sequence of Myosin light chain kinase, smooth muscle (Homo sapiens) (Q15746 whole entry): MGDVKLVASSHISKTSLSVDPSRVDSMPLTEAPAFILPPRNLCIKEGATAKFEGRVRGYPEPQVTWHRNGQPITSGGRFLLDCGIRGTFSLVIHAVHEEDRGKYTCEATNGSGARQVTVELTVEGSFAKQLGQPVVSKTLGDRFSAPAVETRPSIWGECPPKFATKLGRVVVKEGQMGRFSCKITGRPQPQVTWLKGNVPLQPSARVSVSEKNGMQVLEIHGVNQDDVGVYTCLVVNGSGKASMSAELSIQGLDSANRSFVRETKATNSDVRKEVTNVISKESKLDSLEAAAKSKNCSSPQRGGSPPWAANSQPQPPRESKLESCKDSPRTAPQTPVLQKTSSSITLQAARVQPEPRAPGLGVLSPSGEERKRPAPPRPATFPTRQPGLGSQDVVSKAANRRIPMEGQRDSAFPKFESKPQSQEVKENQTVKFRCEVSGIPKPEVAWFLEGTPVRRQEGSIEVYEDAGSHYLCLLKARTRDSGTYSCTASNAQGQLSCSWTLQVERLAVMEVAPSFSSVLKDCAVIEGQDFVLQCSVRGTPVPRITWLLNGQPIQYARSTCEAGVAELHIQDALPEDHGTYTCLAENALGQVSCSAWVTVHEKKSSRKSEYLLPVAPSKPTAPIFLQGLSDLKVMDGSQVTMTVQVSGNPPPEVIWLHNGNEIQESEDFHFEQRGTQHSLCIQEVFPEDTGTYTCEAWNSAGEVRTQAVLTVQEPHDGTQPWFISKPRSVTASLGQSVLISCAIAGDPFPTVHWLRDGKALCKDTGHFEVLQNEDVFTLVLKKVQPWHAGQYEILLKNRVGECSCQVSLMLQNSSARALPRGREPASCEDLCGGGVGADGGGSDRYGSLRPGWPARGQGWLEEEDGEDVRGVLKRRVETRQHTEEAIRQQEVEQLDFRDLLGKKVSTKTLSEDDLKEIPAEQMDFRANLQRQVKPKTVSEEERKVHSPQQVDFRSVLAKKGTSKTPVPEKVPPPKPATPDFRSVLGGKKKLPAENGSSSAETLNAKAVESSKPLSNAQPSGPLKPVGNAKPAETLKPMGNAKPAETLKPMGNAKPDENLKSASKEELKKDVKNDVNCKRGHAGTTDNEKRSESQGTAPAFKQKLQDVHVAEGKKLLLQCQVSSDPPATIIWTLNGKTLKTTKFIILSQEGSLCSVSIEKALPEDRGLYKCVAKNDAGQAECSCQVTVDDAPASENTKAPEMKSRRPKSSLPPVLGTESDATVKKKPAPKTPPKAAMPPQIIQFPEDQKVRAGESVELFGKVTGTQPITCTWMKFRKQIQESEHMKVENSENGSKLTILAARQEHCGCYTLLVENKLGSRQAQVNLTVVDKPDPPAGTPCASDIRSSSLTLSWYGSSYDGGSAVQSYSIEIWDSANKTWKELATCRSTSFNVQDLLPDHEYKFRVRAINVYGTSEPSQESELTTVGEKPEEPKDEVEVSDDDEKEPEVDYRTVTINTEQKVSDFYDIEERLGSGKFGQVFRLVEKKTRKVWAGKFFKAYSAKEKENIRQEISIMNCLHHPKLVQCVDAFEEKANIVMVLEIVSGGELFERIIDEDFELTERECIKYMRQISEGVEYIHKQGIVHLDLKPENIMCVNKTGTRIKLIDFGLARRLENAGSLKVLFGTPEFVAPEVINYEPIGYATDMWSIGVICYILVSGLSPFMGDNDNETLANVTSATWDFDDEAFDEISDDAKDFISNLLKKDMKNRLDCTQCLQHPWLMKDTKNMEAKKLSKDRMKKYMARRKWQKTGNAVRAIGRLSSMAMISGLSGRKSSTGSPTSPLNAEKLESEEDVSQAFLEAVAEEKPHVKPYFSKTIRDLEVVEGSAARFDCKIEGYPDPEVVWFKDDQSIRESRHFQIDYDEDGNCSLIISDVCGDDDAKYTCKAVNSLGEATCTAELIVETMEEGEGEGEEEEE
Sequence of Tyrosine-protein kinase ABL1 (Homo sapiens), P00519 [F317I] (P00519 whole entry F317I): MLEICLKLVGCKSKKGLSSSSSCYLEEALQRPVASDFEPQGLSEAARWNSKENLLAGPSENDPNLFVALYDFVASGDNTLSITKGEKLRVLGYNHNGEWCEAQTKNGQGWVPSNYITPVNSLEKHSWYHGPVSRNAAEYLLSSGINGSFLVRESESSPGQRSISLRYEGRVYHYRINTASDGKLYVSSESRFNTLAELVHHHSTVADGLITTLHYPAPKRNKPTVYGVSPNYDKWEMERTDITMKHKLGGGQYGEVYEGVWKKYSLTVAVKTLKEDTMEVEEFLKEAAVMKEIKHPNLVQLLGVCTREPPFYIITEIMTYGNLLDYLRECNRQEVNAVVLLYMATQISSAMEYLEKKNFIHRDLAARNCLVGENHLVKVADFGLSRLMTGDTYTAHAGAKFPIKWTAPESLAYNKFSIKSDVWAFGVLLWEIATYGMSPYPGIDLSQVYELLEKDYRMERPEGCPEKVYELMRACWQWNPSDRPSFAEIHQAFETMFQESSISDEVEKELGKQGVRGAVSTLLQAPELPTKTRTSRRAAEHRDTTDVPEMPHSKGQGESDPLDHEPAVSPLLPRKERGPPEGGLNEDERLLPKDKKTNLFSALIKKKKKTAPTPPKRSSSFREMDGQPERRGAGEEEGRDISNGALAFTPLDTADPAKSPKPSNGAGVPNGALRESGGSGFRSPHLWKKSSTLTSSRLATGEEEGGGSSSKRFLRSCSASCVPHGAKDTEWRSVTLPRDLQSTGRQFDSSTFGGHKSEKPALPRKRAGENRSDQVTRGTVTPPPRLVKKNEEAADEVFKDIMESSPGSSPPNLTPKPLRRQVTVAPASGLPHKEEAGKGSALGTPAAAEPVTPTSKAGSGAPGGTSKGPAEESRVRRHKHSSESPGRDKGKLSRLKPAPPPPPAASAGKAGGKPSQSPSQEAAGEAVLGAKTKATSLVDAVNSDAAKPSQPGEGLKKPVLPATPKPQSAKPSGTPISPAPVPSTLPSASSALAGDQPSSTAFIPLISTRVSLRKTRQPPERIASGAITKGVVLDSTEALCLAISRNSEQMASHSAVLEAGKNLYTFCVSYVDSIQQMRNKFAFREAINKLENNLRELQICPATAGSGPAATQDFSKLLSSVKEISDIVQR
Sequence of Proto-oncogene tyrosine-protein kinase Src (Homo sapiens) (P12931 2-536 limits assumed): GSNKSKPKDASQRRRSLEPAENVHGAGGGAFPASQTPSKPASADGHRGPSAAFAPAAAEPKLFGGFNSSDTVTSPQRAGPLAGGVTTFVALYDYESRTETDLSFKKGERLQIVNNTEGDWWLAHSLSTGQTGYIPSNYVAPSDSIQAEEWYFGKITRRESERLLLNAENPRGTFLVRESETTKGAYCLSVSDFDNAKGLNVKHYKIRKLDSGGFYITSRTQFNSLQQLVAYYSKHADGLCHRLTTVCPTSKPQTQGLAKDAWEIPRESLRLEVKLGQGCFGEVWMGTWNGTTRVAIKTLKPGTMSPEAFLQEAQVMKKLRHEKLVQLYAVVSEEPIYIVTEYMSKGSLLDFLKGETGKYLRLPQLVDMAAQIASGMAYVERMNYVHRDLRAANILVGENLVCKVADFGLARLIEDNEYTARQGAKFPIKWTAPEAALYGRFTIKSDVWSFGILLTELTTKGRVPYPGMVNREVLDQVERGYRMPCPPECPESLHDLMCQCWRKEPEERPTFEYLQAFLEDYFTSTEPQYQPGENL
Sequence of Serine/threonine-protein kinase 10 (Homo sapiens) (O94804 whole entry, looked up): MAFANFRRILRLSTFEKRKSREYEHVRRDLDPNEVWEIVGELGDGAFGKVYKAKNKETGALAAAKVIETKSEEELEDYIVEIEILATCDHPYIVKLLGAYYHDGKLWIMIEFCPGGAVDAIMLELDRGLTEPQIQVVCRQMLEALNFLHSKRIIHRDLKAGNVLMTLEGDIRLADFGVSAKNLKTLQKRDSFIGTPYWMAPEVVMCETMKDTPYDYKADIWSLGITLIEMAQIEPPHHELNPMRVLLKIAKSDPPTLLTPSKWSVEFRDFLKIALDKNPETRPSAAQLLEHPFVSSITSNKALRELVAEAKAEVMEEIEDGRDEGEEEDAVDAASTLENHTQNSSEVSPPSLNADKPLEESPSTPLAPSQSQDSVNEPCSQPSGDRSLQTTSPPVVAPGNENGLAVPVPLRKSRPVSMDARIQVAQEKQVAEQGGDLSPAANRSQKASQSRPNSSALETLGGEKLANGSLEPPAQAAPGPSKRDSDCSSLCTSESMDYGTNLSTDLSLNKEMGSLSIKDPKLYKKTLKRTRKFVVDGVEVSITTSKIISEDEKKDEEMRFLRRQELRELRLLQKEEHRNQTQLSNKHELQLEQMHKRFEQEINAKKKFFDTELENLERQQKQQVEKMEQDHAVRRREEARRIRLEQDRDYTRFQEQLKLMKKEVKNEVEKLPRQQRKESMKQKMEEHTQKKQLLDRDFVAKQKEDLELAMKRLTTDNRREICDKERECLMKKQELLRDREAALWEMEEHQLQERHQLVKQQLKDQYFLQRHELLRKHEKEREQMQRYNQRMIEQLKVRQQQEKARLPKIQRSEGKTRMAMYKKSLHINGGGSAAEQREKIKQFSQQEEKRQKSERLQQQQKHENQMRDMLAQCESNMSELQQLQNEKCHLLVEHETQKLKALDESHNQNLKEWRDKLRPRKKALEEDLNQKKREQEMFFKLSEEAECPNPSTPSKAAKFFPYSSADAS

Compound: O=S(=O)(NC1CCC(c2cc(F)ccc2F)(S(=O)(=O)c2ccc(Cl)cc2)CC1)C(F)(F)F (stereo not given) [MRK-560]
- residual activity [1]: 84%
- residual activity [2]: 94%
- inhibition (Rattus norvegicus): 37.2%
- residual activity [3]: 100%
- residual activity [4]: 83%
- residual activity [5]: 100%
- residual activity [6]: 100%
- residual activity [7]: 100%
- residual activity [8]: 97%
- residual activity [9]: 100%
- residual activity [10]: 5%
- residual activity [11]: 78%
- residual activity [12]: 100%
- residual activity [13]: 87%
- residual activity [14]: 100%
- residual activity [15]: 100%
- residual activity [16]: 100%
- residual activity [17]: 87%
- residual activity [18]: 95%
- residual activity [19]: 75%
- residual activity [20]: 99%
- residual activity [21]: 100%
- residual activity [22]: 100%
- residual activity [23]: 92%
- residual activity [24]: 98%
- residual activity [25]: 90%
- residual activity [26]: 100%
- residual activity [27]: 86%
- residual activity [28]: 100%
- residual activity [29]: 100%
- residual activity [30]: 100%
- residual activity [31]: 100%
- residual activity [32]: 93%
- inhibition [33]: -8.31%
- residual activity [34]: 100%
- residual activity [35]: 100%
- residual activity [36]: 83%
- residual activity [37]: 92%
- residual activity [38]: 88%
- residual activity [39]: 91%
- residual activity [40]: 97%
- residual activity [41]: 100%
- residual activity [42]: 90%

Compound: CC(C)(C)OC(=O)N1CCCC1CNC1CCC(c2cc(F)ccc2F)(S(=O)(=O)c2ccc(Cl)cc2)CC1 (stereo not given) [GSI-NC]
- Ki [43]: 653 nM
- Ki [44]: 516 nM
